3 molecules from PMC10952710 (2023) can be followed below.

For assay [1], the system named is synthetic neomycin-sensing riboswitch, 2FA-labeled (RNA, riboswitch, 2-fluoroadenine at 16, 17 and 24) GGCUGCUUGUCCUUUAAUGGUCCAGCC
Put plainly: ITC. Particulars: 200 mM NaCl, 10 mM MgCl2, 20 mM Na-cacodylate, 1 mM spermidine, pH 6.8, 37 °C, one-site model.

For assay [2] the test system is unchanged. The assay is described as follows: 19F NMR titration. As to conditions: 303 K; saturating ligand; 215-1200 µM RNA, 1-1.5 equivalents ligand.

`NC[C@H]1O[C@H](O[C@H]2[C@H](O[C@@H]3O[C@H](CO)[C@@H](O)[C@H]3O)[C@@H](O)[C@H](N)C[C@@H]2N)[C@H](N)[C@@H](O)[C@@H]1O` registered a KD in assay [1] (10 µM RNA, 100 µM ligand) of 0.356 ± 0.019 µM. On to `NC[C@@H]1O[C@H](O[C@H]2[C@@H](O)[C@H](O[C@@H]3[C@@H](O)[C@H](N)C[C@H](N)[C@H]3O[C@H]3O[C@H](CN)[C@@H](O)[C@H](O)[C@H]3N)O[C@@H]2CO)[C@H](N)[C@@H](O)[C@@H]1O`, for which, in assay [2], the binding entry is “yes”. Turning to `NC[C@@H]1O[C@H](O[C@H]2[C@@H](O)[C@H](O[C@@H]3[C@@H](O)[C@H](N)C[C@H](N)[C@H]3O[C@H]3O[C@H](CO)[C@@H](O)[C@H](O)[C@H]3N)O[C@@H]2CO)[C@H](N)[C@@H](O)[C@@H]1O`, the KD in assay [1] (30 µM RNA, 300 µM ligand) came out at 5.7 ± 3.8 µM.

For orientation: KD means the free concentration of one partner at which half of the binding sites on the other are occupied at equilibrium, for simple one-to-one binding. High values mean lower affinity, low ones higher affinity.
